Assay results: ChEMBL document CHEMBL3352377, “Discovery of selective and orally bioavailable protein kinase Cθ (PKCθ) inhibitors from a fragment hit” (J Med Chem, 2015); call rule not given here
pIC50: −log10 of the molar value.

Columns and labels:
[1] = Permeability from apical to basolateral side in MDCK2-MDR1 cells at pH 7.4; type: ADME, cell-based, Canis lupus familiaris, MDCK-II; conditions: dog, MDCK-MDR1, pH 7.4; read-out: permeability
[2] = Unbound intrinsic clearance in human microsomes; type: ADME, Microsome
[3] = Unbound intrinsic clearance in rat microsomes; type: ADME, Microsome
[4] = Unbound intrinsic clearance in mouse microsomes; type: ADME, Microsome
[5] = target: Protein kinase C beta type (Homo sapiens, UniProt P05771); assay: Inhibition of human recombinant PKCbeta expressed in Sf21 cells using Bio-cdc peptide substrate and ATP after 60 mins by time-resolved fluorescence in-vitro kinase assay
[6] = target: Protein kinase C delta type (Homo sapiens, UniProt Q05655); assay: Inhibition of human recombinant PKCdelta expressed in Sf21 cells using Bio-cdc peptide substrate and ATP after 60 mins by time-resolved fluorescence in-vitro kinase assay
[7] = target: T1, Protein kinase C epsilon type (Homo sapiens, UniProt Q02156); assay: Inhibition of human recombinant PKCepsilon expressed in Sf21 cells using Bio-cdc peptide substrate and ATP after 60 mins by time-resolved fluorescence in-vitro kinase assay
T1 sequence (Q02156 whole entry): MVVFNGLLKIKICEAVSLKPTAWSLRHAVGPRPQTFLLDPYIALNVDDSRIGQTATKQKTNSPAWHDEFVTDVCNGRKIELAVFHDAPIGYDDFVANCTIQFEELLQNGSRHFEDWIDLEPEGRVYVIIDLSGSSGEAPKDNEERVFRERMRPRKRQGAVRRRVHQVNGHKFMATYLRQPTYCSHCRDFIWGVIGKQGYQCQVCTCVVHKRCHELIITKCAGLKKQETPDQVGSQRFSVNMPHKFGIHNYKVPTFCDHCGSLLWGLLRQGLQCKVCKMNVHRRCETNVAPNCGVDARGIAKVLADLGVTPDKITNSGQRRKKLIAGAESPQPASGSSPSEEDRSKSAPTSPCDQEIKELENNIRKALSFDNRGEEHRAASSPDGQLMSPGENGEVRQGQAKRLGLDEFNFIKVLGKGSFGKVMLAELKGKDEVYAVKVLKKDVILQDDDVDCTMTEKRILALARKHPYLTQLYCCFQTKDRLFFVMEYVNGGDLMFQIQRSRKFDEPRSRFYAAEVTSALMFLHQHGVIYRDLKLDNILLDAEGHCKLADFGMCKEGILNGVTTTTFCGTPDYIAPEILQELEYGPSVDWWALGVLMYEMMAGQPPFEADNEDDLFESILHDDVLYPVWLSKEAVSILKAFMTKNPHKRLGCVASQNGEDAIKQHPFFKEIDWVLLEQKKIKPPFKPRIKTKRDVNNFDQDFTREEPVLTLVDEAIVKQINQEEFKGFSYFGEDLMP

[8] = target: Protein kinase C gamma type (Homo sapiens, UniProt P05129); assay: Inhibition of human recombinant PKCgamma expressed in Sf21 cells using Bio-cdc peptide substrate and ATP after 60 mins by time-resolved fluorescence in-vitro kinase assay
[9] = Inhibition of human recombinant […] expressed in Sf21 cells using Bio-cdc peptide substrate and ATP after 60 mins by time-resolved fluorescence in-vitro kinase assay
[10] = target: T2, Protein kinase C zeta type (Homo sapiens, UniProt Q05513); assay: Inhibition of human recombinant PKCzeta expressed in Sf21 cells using Bio-cdc peptide substrate and ATP after 60 mins by time-resolved fluorescence in-vitro kinase assay
T2 sequence (Q05513 whole entry): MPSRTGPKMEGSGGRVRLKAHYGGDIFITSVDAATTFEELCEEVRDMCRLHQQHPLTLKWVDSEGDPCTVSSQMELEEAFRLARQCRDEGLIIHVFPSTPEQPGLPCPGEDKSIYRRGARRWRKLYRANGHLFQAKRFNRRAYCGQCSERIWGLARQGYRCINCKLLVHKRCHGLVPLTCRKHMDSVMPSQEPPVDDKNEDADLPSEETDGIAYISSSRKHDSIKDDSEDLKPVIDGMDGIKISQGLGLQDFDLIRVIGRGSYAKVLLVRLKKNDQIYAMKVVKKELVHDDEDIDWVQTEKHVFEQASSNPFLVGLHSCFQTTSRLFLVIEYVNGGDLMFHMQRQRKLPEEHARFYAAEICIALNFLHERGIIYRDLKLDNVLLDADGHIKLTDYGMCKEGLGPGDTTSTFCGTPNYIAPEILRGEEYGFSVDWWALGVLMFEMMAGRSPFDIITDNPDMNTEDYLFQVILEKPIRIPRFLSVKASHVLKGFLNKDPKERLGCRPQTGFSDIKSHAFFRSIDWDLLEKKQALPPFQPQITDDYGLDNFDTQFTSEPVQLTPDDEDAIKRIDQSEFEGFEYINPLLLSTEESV

[11] = Plasma clearance in rat at 1 mg/kg, iv or 3 mg/kg, po; type: ADME, organism-based
[12] = Half life in rat at 1 mg/kg, iv or 3 mg/kg, po; type: ADME, organism-based; conditions: in vivo
[13] = Cmax in rat at 1 mg/kg, iv or 3 mg/kg, po; type: ADME, organism-based; conditions: in vivo
[14] = AUC in rat at 1 mg/kg, iv or 3 mg/kg, po; type: ADME, organism-based; conditions: plasma
[15] = Oral bioavailability in rat at 3 mg/kg; type: ADME, organism-based; conditions: in vivo
[16] = Plasma clearance in mouse at 3 mg/kg, iv or 10 mg/kg, po; type: ADME, organism-based
[17] = Half life in mouse at 3 mg/kg, iv or 10 mg/kg, po; type: ADME, organism-based; conditions: in vivo
[18] = Cmax in mouse at 3 mg/kg, iv or 10 mg/kg, po; type: ADME, organism-based; conditions: in vivo
[19] = AUC in mouse at 3 mg/kg, iv or 10 mg/kg, po; type: ADME, organism-based; conditions: plasma
[20] = Oral bioavailability in mouse at 10 mg/kg; type: ADME, organism-based; conditions: in vivo
[21] = target: Voltage-gated inwardly rectifying potassium channel KCNH2 (Homo sapiens, UniProt Q12809); assay: Inhibition of human ERG
Canis familiaris [22] = assay: Reduction in dP/dtmax in anesthetized dog cardiovascular model at plasma concentration of 2.2 uM in presence of hexamethonium; type: ADME, organism-based, Canis lupus familiaris; parameters: scale not given: the % may be the effect or the level left; conditions: in vivo
Canis familiaris [23] = assay: Reduction in mean arterial pressure in anesthetized dog cardiovascular model at plasma concentration of 7.7 uM in presence of hexamethonium; type: ADME, organism-based, Canis lupus familiaris; conditions: in vivo
Canis familiaris [24] = assay: Reduction in dP/dtmax in anesthetized dog cardiovascular model at plasma concentration of 7.7 uM in presence of hexamethonium; type: ADME, organism-based, Canis lupus familiaris; parameters: scale not given: the % may be the effect or the level left; conditions: in vivo
Canis familiaris [25] = assay: Reduction in mean arterial pressure in anesthetized dog cardiovascular model at plasma concentration of 1.7 uM; type: ADME, organism-based, Canis lupus familiaris; conditions: in vivo
Canis familiaris [26] = assay: Reduction in dP/dtma in anesthetized dog cardiovascular model at plasma concentration of 1.7 uM; type: ADME, organism-based, Canis lupus familiaris; parameters: scale not given: the % may be the effect or the level left; conditions: in vivo
Canis familiaris [27] = assay: Reduction in mean arterial pressure in anesthetized dog cardiovascular model at plasma concentration of 6.9 uM; type: ADME, organism-based, Canis lupus familiaris; conditions: in vivo
[28] = target: Protein kinase C alpha type (Homo sapiens, UniProt P17252)
cells = conditions: Homo sapiens, T-Blast, 24 h
Description: Inhibition of anti-CD3/anti-CD28 antibody-induced IL2 production in human T-Blast cells after 24 hrs

Canis familiaris [29] = assay: Increase in dP/dtma in anesthetized dog cardiovascular model at plasma concentration of 7.7 uM; conditions: in vivo
Rattus norvegicus [30] = assay: Reduction in heart rate in rat cardiovascular model at 3 to 30 mg/kg dosed over 30 mins infusions; conditions: in vivo, iv, 0.5 h
Canis familiaris [31] = assay: Reduction in mean arterial pressure in anesthetized dog cardiovascular model in presence of hexamethonium; conditions: in vivo
Rattus norvegicus [32] = assay: Effect on left ventricular dP/dt50 in rat cardiovascular model at 3 to 30 mg/kg dosed over 30 mins infusions; conditions: in vivo, iv, 0.5 h
Rattus norvegicus [33] = assay: Reduction in mean arterial pressure in rat cardiovascular model at 3 to 30 mg/kg dosed over 30 mins infusions; conditions: in vivo, iv, 0.5 h
[34] = Plasma concentration in concanavalin A-induced Balb/c mouse at 1 mg/kg, po dosed 2 hrs before concanavalin A challenge; type: ADME, organism-based; parameters: dose 1 mg/kg, route oral
[35] = Plasma concentration in concanavalin A-induced Balb/c mouse at 3 mg/kg, po dosed 2 hrs before concanavalin A challenge; type: ADME, organism-based; parameters: dose 3 mg/kg, route oral
[36] = Plasma concentration in concanavalin A-induced Balb/c mouse at 10 mg/kg, po dosed 2 hrs before concanavalin A challenge; type: ADME, organism-based; parameters: dose 10 mg/kg, route oral
[37] = Plasma concentration in concanavalin A-induced Balb/c mouse at 30 mg/kg, po dosed 2 hrs before concanavalin A challenge; type: ADME, organism-based; parameters: dose 30 mg/kg, route oral
[38] = Plasma concentration in concanavalin A-induced Balb/c mouse at 100 mg/kg, po dosed 2 hrs before concanavalin A challenge; type: ADME, organism-based; parameters: dose 100 mg/kg, route oral
[39] = Fraction unbound in mouse plasma; type: ADME, cell-free
Mus musculus [40] = assay: Reduction in paw swelling in DBA/J mouse model of glucose 6-phosphate isomerase-induced athritis at 30 mg/kg, po dosed twice daily from day 1 to day 17; type: functional
Mus musculus [41] = assay: Reduction in paw swelling in DBA/J mouse model of glucose 6-phosphate isomerase-induced athritis at 10 mg/kg, po dosed twice daily from day 1 to day 17; type: functional
[42] = AUC (0 to t) in DBA/J mouse model of glucose 6-phosphate isomerase-induced athritis at 10 mg/kg, po dosed twice daily from day 1 to day 17; type: ADME, organism-based; parameters: dose 10 mg/kg, route oral; conditions: in vivo
[43] = AUC (0 to t) in DBA/J mouse model of glucose 6-phosphate isomerase-induced athritis at 30 mg/kg, po dosed twice daily from day 1 to day 17; type: ADME, organism-based; parameters: dose 30 mg/kg, route oral; conditions: in vivo
Mus musculus [44] = assay: Toxicity in DBA/J mouse model of glucose 6-phosphate isomerase-induced athritis at 100 mg/kg, po dosed twice daily for >10 days; type: organism-based; parameters: dose 100 mg/kg, route oral; conditions: in vivo, 240 h
Rattus norvegicus [45] = assay: Increase in left ventricular dP/dt50 in rat cardiovascular model at plasma concentration of 1.3 uM dosed over 30 mins infusions; conditions: in vivo, iv, 0.5 h
Rattus norvegicus [46] = assay: Increase in left ventricular dP/dt50 in rat cardiovascular model at plasma concentration of 5.8 uM dosed over 30 mins infusions; conditions: in vivo, iv, 0.5 h
Rattus norvegicus [47] = assay: Increase in left ventricular dP/dt50 in rat cardiovascular model at plasma concentration of 9.7 uM dosed over 30 mins infusions; conditions: in vivo, iv, 0.5 h

Chain of Voltage-gated inwardly rectifying potassium channel KCNH2 (Q12809 whole entry): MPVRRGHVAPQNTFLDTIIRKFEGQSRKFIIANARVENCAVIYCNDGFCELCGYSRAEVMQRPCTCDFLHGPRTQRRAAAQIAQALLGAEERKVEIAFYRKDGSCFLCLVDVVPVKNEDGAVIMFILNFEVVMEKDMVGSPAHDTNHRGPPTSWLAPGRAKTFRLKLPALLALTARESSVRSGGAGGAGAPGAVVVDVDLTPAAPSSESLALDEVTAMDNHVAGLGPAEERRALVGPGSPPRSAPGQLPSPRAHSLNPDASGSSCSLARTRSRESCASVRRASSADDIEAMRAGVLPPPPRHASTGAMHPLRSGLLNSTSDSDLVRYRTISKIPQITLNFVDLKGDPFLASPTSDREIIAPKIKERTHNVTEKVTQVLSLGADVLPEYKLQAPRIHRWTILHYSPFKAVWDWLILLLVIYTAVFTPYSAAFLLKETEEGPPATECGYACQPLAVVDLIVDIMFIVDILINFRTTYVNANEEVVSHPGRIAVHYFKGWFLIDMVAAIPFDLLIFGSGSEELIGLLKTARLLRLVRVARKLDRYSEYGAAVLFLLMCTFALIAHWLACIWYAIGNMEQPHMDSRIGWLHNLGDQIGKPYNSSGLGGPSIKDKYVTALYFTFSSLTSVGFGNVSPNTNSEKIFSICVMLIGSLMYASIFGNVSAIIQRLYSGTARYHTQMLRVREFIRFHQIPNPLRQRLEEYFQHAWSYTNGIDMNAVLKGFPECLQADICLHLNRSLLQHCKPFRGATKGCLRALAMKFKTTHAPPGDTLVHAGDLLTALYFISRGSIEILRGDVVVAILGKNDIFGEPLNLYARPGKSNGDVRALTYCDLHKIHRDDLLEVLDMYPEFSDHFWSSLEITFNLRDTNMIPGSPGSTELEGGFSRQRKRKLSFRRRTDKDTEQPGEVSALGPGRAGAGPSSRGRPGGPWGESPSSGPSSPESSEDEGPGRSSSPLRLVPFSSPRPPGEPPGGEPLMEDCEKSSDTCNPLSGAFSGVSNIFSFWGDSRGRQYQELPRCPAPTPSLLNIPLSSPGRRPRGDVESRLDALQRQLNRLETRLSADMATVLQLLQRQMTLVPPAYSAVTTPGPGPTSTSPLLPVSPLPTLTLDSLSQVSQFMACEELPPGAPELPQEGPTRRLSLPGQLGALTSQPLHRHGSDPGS
Chain of Protein kinase C beta type (P05771 whole entry): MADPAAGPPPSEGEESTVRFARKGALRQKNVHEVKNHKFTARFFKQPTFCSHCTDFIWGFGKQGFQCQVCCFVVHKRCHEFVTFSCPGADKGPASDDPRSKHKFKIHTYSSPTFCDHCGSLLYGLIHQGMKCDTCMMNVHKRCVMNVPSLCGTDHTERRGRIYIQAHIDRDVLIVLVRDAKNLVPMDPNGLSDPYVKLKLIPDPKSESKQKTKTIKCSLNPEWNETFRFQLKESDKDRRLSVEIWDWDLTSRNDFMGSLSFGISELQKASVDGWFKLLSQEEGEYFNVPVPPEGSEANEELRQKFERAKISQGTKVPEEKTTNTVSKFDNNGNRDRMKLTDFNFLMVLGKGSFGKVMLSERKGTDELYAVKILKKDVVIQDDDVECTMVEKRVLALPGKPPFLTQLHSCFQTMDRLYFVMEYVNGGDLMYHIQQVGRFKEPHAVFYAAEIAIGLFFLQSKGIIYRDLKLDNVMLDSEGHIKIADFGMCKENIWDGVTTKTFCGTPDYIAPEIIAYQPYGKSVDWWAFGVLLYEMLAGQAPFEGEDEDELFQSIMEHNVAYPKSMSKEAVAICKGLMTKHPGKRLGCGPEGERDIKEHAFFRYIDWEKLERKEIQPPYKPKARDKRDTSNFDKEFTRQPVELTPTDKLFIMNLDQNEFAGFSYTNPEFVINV
Chain of Protein kinase C delta type (Q05655 whole entry): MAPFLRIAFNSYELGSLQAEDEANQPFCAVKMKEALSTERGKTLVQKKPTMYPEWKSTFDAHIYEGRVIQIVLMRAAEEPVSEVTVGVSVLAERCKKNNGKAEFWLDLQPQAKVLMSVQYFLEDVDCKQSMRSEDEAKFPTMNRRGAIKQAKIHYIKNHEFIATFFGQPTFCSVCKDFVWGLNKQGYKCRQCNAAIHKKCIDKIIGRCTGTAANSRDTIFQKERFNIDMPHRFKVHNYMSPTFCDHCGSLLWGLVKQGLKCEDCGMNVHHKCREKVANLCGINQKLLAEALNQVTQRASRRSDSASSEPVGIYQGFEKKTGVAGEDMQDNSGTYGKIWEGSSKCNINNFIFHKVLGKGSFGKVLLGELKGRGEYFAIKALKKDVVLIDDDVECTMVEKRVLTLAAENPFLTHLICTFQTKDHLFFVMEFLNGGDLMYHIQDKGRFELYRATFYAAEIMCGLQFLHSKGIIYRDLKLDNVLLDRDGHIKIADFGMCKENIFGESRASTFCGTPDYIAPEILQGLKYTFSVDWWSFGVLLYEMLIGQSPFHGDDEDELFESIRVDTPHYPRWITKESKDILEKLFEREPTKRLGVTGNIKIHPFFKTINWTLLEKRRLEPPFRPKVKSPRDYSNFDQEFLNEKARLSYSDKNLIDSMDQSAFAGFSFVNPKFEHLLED

C[C@@H]1C(=O)NN=C2COc3cc(C(F)(F)F)c(NC4CNC4)cc3N21
Papp A→B [1]: 0.44 ×10⁻⁶ cm/s | CL free [2]: 4.8 L/h/kg | CL free [3]: < 4.7 L/h/kg | CL free [4]: < 8.3 L/h/kg | pIC50 [5]: 5.82 | pIC50 [6]: 6.33 | pIC50 [7]: 6.85 | pIC50 [8]: 5.11 | pIC50 [9]: 5.41 | pIC50 [10]: 4.48 | clearance [11]: 35 mL/min/kg | half-life [12]: 330 min | Cmax [13]: 80 ng/mL | AUC [14]: 409 ng·h/mL | bioavailability [15]: 28% | clearance [16]: 96.7 mL/min/kg | half-life [17]: 162 min | Cmax [18]: 342 ng/mL | AUC [19]: 1730 ng·h/mL | bioavailability [20]: 85% | pIC50 [21]: < 4.52 | Activity (Canis familiaris [22]): -4% | Activity (Canis familiaris [23]): -12 mmHg | Activity (Canis familiaris [24]): -7% | Activity (Canis familiaris [25]): 1 mmHg | Activity (Canis familiaris [26]): 3% | Activity (Canis familiaris [27]): 3 mmHg | pIC50 [28]: 5.34 | pIC50 (cells): 6.66 | Activity (Canis familiaris [29]): 34% | Activity (Rattus norvegicus [30]): Toxic | Activity (Canis familiaris [31]): -3 mmHg | Activity (Rattus norvegicus [32]): Non-toxic | Activity (Rattus norvegicus [33]): Toxic

C[C@@H]1C(=O)NN=C2COc3cc(C(F)(F)F)c(NC4(C)CNC4)cc3N21
Papp A→B [1]: 1.5 ×10⁻⁶ cm/s | CL free [2]: < 2 L/h/kg | CL free [3]: < 3.3 L/h/kg | CL free [4]: < 5.7 L/h/kg | clearance [11]: 45 mL/min/kg | half-life [12]: 282 min | Cmax [13]: 160 ng/mL | AUC [14]: 782 ng·h/mL | bioavailability [15]: 74% | clearance [16]: 25 mL/min/kg | half-life [17]: 186 min | Cmax [18]: 846 ng/mL | AUC [19]: 9260 ng·h/mL | bioavailability [20]: 108% | pIC50 [21]: < 4.52 | concentration at 2 h [34]: 37 nM | concentration at 2 h [35]: 110 nM | concentration at 2 h [36]: 310 nM | concentration at 2 h [37]: 900 nM | concentration at 2 h [38]: 2500 nM | fraction unbound [39]: 0.27 | inhibition in vivo at 30 mg/kg (Mus musculus [40]): 100% | inhibition in vivo at 10 mg/kg (Mus musculus [41]): 62% | AUC(0-t) [42]: 4500 ng·h/mL | AUC(0-t) [43]: 15100 ng·h/mL | Activity (Mus musculus [44]): Toxic | pIC50 [28]: 5.77 | pIC50 (cells): 6.92

CN1CCN(c2nc(C3=C(c4c[nH]c5ccccc45)C(=O)NC3=O)c3ccccc3n2)CC1 [SOTRASTAURIN]
Activity (Rattus norvegicus [45]): 14% | Activity (Rattus norvegicus [46]): 35% | Activity (Rattus norvegicus [47]): 76%
